In article PMC12769565, “Design, synthesis and biological activity of glycoconjugated ADAMTS5 exosite inhibitors: applications in osteoarthritis and ovarian cancer models” (Scientific Reports, 2025):

Key:
ADAMTS5 = molecular target: T1, ADAMTS5 (Homo sapiens, UniProt Q9UNA0); test: Aggrecanase assay (bovine aggrecan, anti-ARGSV neoepitope immunoblot); format: biochemical
T1 construct: Human recombinant full-length FLAG-tagged ADAMTS4 and ADAMTS5 were expressed in HEK293T cells; FLAG; made in house; host or cells: HEK293T cells
T1 sequence (Q9UNA0 262-930): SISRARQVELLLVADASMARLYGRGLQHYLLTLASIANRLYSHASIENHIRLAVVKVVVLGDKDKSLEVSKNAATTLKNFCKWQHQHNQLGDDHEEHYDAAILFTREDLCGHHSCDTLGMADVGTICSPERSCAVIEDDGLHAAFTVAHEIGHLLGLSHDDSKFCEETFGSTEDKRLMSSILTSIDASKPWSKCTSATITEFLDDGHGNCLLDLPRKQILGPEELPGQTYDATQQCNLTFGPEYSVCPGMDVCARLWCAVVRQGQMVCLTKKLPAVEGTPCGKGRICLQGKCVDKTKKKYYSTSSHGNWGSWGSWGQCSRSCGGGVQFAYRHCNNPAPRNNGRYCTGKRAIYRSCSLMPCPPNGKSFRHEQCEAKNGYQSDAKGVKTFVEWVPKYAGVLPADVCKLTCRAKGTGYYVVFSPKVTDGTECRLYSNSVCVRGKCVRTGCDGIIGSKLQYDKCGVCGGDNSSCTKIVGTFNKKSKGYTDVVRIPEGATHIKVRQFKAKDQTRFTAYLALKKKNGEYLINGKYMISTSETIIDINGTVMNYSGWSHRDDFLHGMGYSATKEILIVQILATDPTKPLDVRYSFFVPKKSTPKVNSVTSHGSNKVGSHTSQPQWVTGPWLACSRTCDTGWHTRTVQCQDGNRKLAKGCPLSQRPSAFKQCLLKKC
Description: Aggrecanase assays were carried out as before. ADAMTS5 (1 nM) was incubated with compounds 2 and 3 or DMSO for 2 h at 37 °C in TNC-B buffer before addition of bovine articular aggrecan (UniProt ID: P13608, 270 nM) (Merck, A1960). After 2 h digestion at 37 °C, the reactions were stopped with ethylenediaminetetraacetic acid and the samples incubated with 0.1 U/ml of chondroitinase ABC (AMS Biotechnology, Abingdon, UK) and keratanase (endo-beta galactosidase, Merck, G6920) in deglycosylation buffer (50 mM sodium acetate, 25 mM Tris HCl pH 8.0) for 16 h at 37 °C to remove GAG chains.
Samples were separated by SDS-PAGE under reducing conditions (5% β-mercaptoethanol) on BOLT, 4–12%, Bis-Tris Gels (Invitrogen) in MES Running Buffer (NuPAGE). Proteins were transferred onto a nitrocellulose membrane using Trans-Blot Turbo™ Transfer System (BioRad), at 25 V, 2.5 A for 30 min. Membranes were blocked with 3% BSA/PBS for 1 h at room temperature. Aggrecan fragments generated by ADAMTS cleavage at E^392-A^393[8] or E^1953-A^1954[68] were detected using mouse monoclonal anti-ARGSV antibody (BC3, Life Technologies, MA3-16888, 4 µg/ml) or polyclonal anti-AGEG neoepitope antibody (serum, 1:200 dilution)[12],[33], respectively, followed by the appropriate horseradish peroxidase (HRP)-conjugated secondary antibodies (polyclonal Goat Anti-Mouse P0447, 0.1 ng/µl and polyclonal Goat Anti-Rabbit, P0448, 0.03 ng/µl, both from Agilent Technologies LDA UK Ltd). All antibodies were diluted in 0.5% bovine serum albumin (BSA)/PBS. Washes between each step were carried out in triplicate, for 15 min each, with PBS-Tween (0.1%). Following addition of the chemiluminescent HRP substrate (Millipore, WBKL30500) membranes were imaged using Bio-Rad Chemidoc Touch Imaging System. Analysis was carried out using BioRad ImageLab software (version 5.2.1) using sequential exposures to avoid saturation artifacts. Figures for unprocessed blots are included in Supplementary information Fig. S4 and Fig. S5 with highlighted regions (in red boxes) corresponding to the data reported in the main manuscript figures.

[1] = tested on: A2780 OC cells over-expressing Rab25; test: OC cell migration on cell-derived matrix (pseudopod length, directionality, velocity); format: cell-based; details: cells on CDM
Description: A2780 OC cells over-expressing Rab25 (A2780-Rab25), generated in G. Mills lab[71], and telomerase-immortalised human fibroblasts (TIFs) were a gift from Jim Norman lab (CRUK Scotland Institute). A2780-Rab25 cells were grown in RPMI media (Gibco), supplemented with 10% (v/v) FBS. TIFs were grown in DMEM, supplemented with 10% FBS. To maintain Rab25 over-expression, A2780-Rab25 cells were selected with 0.4 mg/ml G418 every 10 passages.
CDMs were generated as previously described[72] in 12 well plates. Wells were coated with 0.2% gelatin for 60 min at 37 °C, crosslinked with 1% glutaraldehyde for 30 min at room temperature, quenched with 1 M glycine for 20 min at room temperature and equilibrated in DMEM for 30 min at 37 °C. TIFs (2.5 × 10^5 per well) were seeded for 24 h to achieve confluency and grown in the presence of 50 µg/ml ascorbic acid for 9 days. CDMs were washed with PBS, incubated with extraction buffer (20 mM NH4OH, 0.5% Triton X-100 in PBS with Ca^2+ and Mg^2+) for ~ 2 min, until no intact cells were visible by phase, washed twice with PBS with Ca^2+ and Mg^2+ and treated with 15 µg/ml DNase for 1 h at 37 °C, 5% CO2. CDMs were washed twice with PBS with Ca^2+ and Mg^2+ and stored in PBS with Ca^2+ and Mg^2+ at 4 °C for up to one month.
A2780-Rab25 cells (5 × 10^4 per well) were seeded onto a CDM-coated 12-well plate. Compound 2 was added 4 h after plating. Plates were imaged in a Nikon Inverted Ti eclipse microscope with Oko-lab environmental control chamber with a 10x/NA 0.45 objective. Cells were incubated at 37 °C and 5% CO2, images were acquired every 10 min for 12 h and more than 40 cells per well were quantified per biological replicate. Individual cell migration was manually tracked using MTrack2, a Fiji/ImageJ plugin. The chemotaxis tool plugin in Fiji/Image J (https://ibidi.com/chemotaxis-analysis/171-chemotaxis-and-migration-tool.html) was used to calculate the velocity and directionality of migrating cells.

[2] = tested at 10 or 50 µM, concentration of this value not stated

inhibition at 10 µM (ADAMTS5; 10 µM): 53%
inhibition at 100 µM (ADAMTS5; 100 µM): 80%
Structure (SMILES): CCC(C)N(Cc1cn(CCCO[C@@H]2O[C@H](CO)[C@@H](O[C@@H]3O[C@H](CO)[C@H](O)[C@H](O)[C@H]3O)[C@H](O)[C@H]2NC(C)=O)nn1)S(=O)(=O)c1ccc(-c2ccccc2)cc1 (stereo partly drawn) [compound 2, N-((2R,3R,4R,5 S,6R)-2-(3-(4-((N-(sec-butyl)-[1,1’-biphenyl]-4-sulfonamido)methyl)-1H-1,2,3-triazol-1-yl)propoxy)-4-hydroxy-6-(hydroxymethyl)-5-(((2 S,3R,4 S,5R,6R)-3,4,5-trihydroxy-6-(hydroxymethyl)tetrahydro-2 H-pyran-2-yl)oxy)tetrahydro-2 H-pyran-3-yl)acetamide]
velocity of cell migration ([1]; 10 or 50 µM): without affecting
inhibition in directionality of cell migration [1, 2]: 43%
inhibition in pseudopod elongation [1, 2]: 35%
